Measurements published in patent US20240148821A1, “PHARMACEUTICAL USE OF CYCLIC PEPTIDE COMPOUND” (CHUGAI SEIYAKU KABUSHIKI KAISHA, priority 2021, published 2024).
Numbered stars: 1 amine (or outer) side, 2 acyl side, 3 side chain; on linkers, the order of the positions; unused ones are H or OH. Bridge positions count the residues as written; N and C are the ends. Square brackets hold non-standard residues; d marks the D form. Peptide text beside a SMILES is read from it. * marks the point of attachment. hPhe(3-Cl-4-CF3) = N[C@@H](CCc1ccc(C(F)(F)F)c(Cl)c1)C(=O)O; hPhe(3-F,4-CF3) = N[C@@H](CCc1ccc(C(F)(F)F)c(F)c1)C(=O)O; NMePhe(4-CF3) = CN[C@@H](Cc1ccc(C(F)(F)F)cc1)C(=O)O; NMeAbu(4,4,4-F3) = CN[C@@H](CC(F)(F)F)C(=O)O; NMePhe(4-Cl) = CN[C@@H](Cc1ccc(Cl)cc1)C(=O)O; NMePhe(3-Me) = CN[C@@H](Cc1cccc(C)c1)C(=O)O; NMePhe(4-Me) = CN[C@@H](Cc1ccc(C)cc1)C(=O)O; NMeNle(6-CHF2) = CN[C@@H](CCCCC(F)F)C(=O)O; NMedβ3hAla = C[C@H](CC(=O)[*:2])N(C)[*:1]; NMeGly(cPent) = CN[C@H](C(=O)O)C1CCCC1; NMeCha = CN[C@@H](CC1CCCCC1)C(=O)O; Hyp = O=C(O)[C@@H]1C[C@@H](O)CN1; NMeChg = CN[C@H](C(=O)O)C1CCCCC1; NMeD = CN[C@@H](CC(=O)O)C(=O)O; NMeL = CN[C@@H](CC(C)C)C(=O)O; NMePra = C#CC[C@H](NC)C(=O)O; NMeV = CN[C@H](C(=O)O)C(C)C; d(β3hA) = C[C@@H](N)CC(=O)O; Morpholide = C1CN(*)CCO1; NMeA = CN[C@@H](C)C(=O)O; NMeAib = CNC(C)(C)C(=O)O; Piperidide = C1CCN(*)CC1; dNMeA = CN[C@H](C)C(=O)O; Ac5c = NC1(C(=O)O)CCCC1; Aze = O=C(O)[C@@H]1CCN1; Sar = CNCC(=O)O

Columns and labels:
[1] = target: protein-protein interaction between Kras and SOS1 (biotin-tagged human Kras loaded with GDP, His-tagged human SOS1) (Homo sapiens (Human), UniProt P01116, G12D); assay: Protein-protein interaction inhibition between Kras and SOS1 (KrasG12D-SOS PPI) using AlphaScreen; assay type: biochemical; conditions: AlphaScreen; biotin-tagged human Kras loaded with GDP, His-tagged human SOS1; read-out: KRAS G12D-SOS PPI IC50;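 also: kras produced in E. coli, Ni-coupled donor beads and streptavidin acceptor beads, excitation 680 nm with emission detected at 520–620 nm via singlet oxygen transfer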
[2] = test system: Human pancreatic cancer cell line AsPC-1 (G12D mutation Kras); assay: AsPC-1 cell growth inhibition (AsPC-1 CGI); assay type: cell-based; conditions: read-out: AsPC-1 cell growth inhibition, 50% growth inhibitory concentration (IC50 value); 96 hours, CellTiter-Glo, values classified in ranges

SMILES | IC50 [1] [µM] | IC50 [2] [µM]
CC[C@H](C)[C@@H]1NC(=O)[C@H](CC(C)C)N(C)C(=O)C[C@@H](C(=O)N2CCOCC2)N(C)C(=O)[C@H](C2CCCC2)N(C)C(=O)C2(CCCC2)NC(=O)[C@@H]2CCCN2C(=O)[C@H](CCc2ccc(C(F)(F)F)c(F)c2)NC(=O)CN(C)C(=O)[C@H](CC2CCCCC2)N(C)C(=O)[C@@H]2CCN2C(=O)[C@H](C)N(C)C1=O [Compound 390] ([NMeL]I[NMeA][Aze][NMeCha][Sar][hPhe(3-F,4-CF3)]P[Ac5c][NMeGly(cPent)][NMeD]-Morpholide; lactam N-11) | 0.00077 | ≤ 0.02
CC[C@H](C)[C@@H]1NC(=O)[C@H](CC(C)C)N(C)C(=O)C[C@@H](C(=O)N2CCCCC2)N(C)C(=O)[C@H](CCCCC(F)F)N(C)C(=O)C2(CCCC2)NC(=O)[C@@H]2CCCN2C(=O)[C@H](CCc2ccc(C(F)(F)F)c(Cl)c2)NC(=O)CN(C)C(=O)[C@H](CC2CCCCC2)N(C)C(=O)[C@@H]2CCN2C(=O)[C@H](C)N(C)C1=O [Compound 1123] ([NMeL]I[NMeA][Aze][NMeCha][Sar][hPhe(3-Cl-4-CF3)]P[Ac5c][NMeNle(6-CHF2)][NMeD]-Piperidide; lactam N-11) | 0.18 | > 0.5
CCO[C@@H]1C[C@H]2C(=O)NC3(CCCC3)C(=O)N(C)[C@@H](C3CCCCC3)C(=O)N(C)[C@H](C(=O)N3CCOCC3)CC(=O)N(C)[C@@H](CC(F)(F)F)C(=O)N[C@@H]([C@@H](C)CC)C(=O)N(C)CC(=O)N(C)CC(=O)N(C)[C@@H](Cc3ccc(C(F)(F)F)cc3)C(=O)N(C)CC(=O)N[C@@H](CCc3ccc(C(F)(F)F)c(Cl)c3)C(=O)N2C1 [Compound 1206] ([NMeAbu(4,4,4-F3)]I[Sar][Sar][NMePhe(4-CF3)][Sar][hPhe(3-Cl-4-CF3)][Hyp](Et)[Ac5c][NMeChg][NMeD]-Morpholide; lactam N-11) | 0.00057 | ≤ 0.02
CC[C@H](C)[C@@H]1NC(=O)[C@H](C)N(C)C(=O)C[C@@H](C(=O)N2CCCCC2)N(C)C(=O)[C@H](C(C)C)N(C)C(=O)C2(CCCC2)NC(=O)[C@@H]2CCCN2C(=O)[C@H](CCc2ccc(C(F)(F)F)c(Cl)c2)NC(=O)[C@@H](C)N(C)C(=O)[C@H](CC2CCCCC2)N(C)C(=O)[C@@H]2CCCN2C(=O)CN(C)C1=O [Compound 307] ([NMeA]I[Sar]P[NMeCha][dNMeA][hPhe(3-Cl-4-CF3)]P[Ac5c][NMeV][NMeD]-Piperidide; lactam N-11) | 0.0044 | > 0.5
C#CC[C@H]1C(=O)N(C)CC(=O)N[C@@H](CCc2ccc(C(F)(F)F)c(Cl)c2)C(=O)N2CCC[C@H]2C(=O)NC2(CCCC2)C(=O)N(C)[C@@H](C(C)C)C(=O)N(C)[C@H](C(=O)N2CCCCC2)CC(=O)N(C)[C@@H](CC(C)C)C(=O)N[C@@H]([C@@H](C)CC)C(=O)N(C)[C@@H](C)C(=O)N2CC[C@H]2C(=O)N1C [Compound 32] ([NMeL]I[NMeA][Aze][NMePra][Sar][hPhe(3-Cl-4-CF3)]P[Ac5c][NMeV][NMeD]-Piperidide; lactam N-11) | 0.02 | > 0.5
CC[C@H](C)[C@@H]1NC(=O)[C@H](C)N(C)C(=O)C[C@@H](C)NC(=O)[C@H](C2CCCC2)N(C)C(=O)C2(CCCC2)NC(=O)[C@@H]2CCCN2C(=O)[C@H](CCc2ccc(C(F)(F)F)c(Cl)c2)NC(=O)CN(C)C(=O)[C@H](Cc2cccc(C)c2)N(C)C(=O)[C@@H]2CCCN2C(=O)CN(C)C1=O [Compound 1083] (cyclo([Ac5c][NMeGly(cPent)][d(β3hA)][NMeA]I[Sar]P[NMePhe(3-Me)][Sar][hPhe(3-Cl-4-CF3)]P)) | 0.019 | > 0.5
CC[C@H](C)[C@@H]1NC(=O)[C@H](C)N(C)C(=O)C[C@@H](C)NC(=O)[C@H](C2CCCC2)N(C)C(=O)C2(CCCC2)NC(=O)[C@@H]2CCCN2C(=O)[C@H](CCc2ccc(C(F)(F)F)c(Cl)c2)NC(=O)[C@@H](C)N(C)C(=O)[C@H](Cc2ccc(C)cc2)N(C)C(=O)[C@@H]2CCN2C(=O)[C@H](C)N(C)C1=O [Compound 1536] (cyclo([Ac5c][NMeGly(cPent)][d(β3hA)][NMeA]I[NMeA][Aze][NMePhe(4-Me)][dNMeA][hPhe(3-Cl-4-CF3)]P)) | 0.021 | > 0.5
CC(C)C[C@@H]1NC(=O)C(C)(C)N(C)C(=O)[C@H](CC(C)C)NC(=O)[C@H](CCc2ccc(C(F)(F)F)c(F)c2)NC(=O)CN(C)C(=O)[C@H](Cc2ccc(Cl)cc2)N(C)C(=O)CN(C)C(=O)CN(C)C(=O)[C@H](C(C)C)NC(=O)[C@H](CC(C)C)N(C)C(=O)C[C@@H](C)N(C)C1=O [Compound 956] (cyclo(L[NMeAib]L[NMedβ3hAla][NMeL]V[Sar][Sar][NMePhe(4-Cl)][Sar][hPhe(3-F,4-CF3)])) | 0.08 | > 0.5
